Measurements reported in US5147878A, “Aminoalkoxyphenyl derivatives, process of preparation and compositions containing the same” (Sanofi, priority 1986, dated 1992).
Where a name gives a salt, the structure may show the parent alone.

How the values were obtained:
[1] = test system: epinephrine-induced increase in blood-pressure (anti-α effect); assay: Antiadrenergic properties: anti-α effect (reduction of epinephrine-induced hypertension); format: in vivo; parameters: key to anti-α effect: +: for a reduction < 50%; ++: for a reduction ≥ 50%; +++: for a reduction sub-total (almost complete reduction); details: dog
Description: (§1) The object of this test is to determine the capacity of the compounds of the invention for reducing the increase in epinephrine-induced increase in blood-pressure (anti-α effect) and the isoprenaline-induced acceleration in heart rate (anti-β effect), in dogs previously anaesthatized with pentobarbital and atropinized. For each dog, the dose of epinephrine (between 3 and 10 μg/kg) which induced a reproducible increase in the blood-pressure of approximately 133×10^2 Pa and the dose of isoprenaline (1 to 2 μg/kg) which induced a reproducible increase in the heart rate of approximately 70 beats/min. were first determined. The dose of epinephrine and of isoprenaline, determined in this manner, were injected alternately every ten minutes and, after two successive reference responses had been obtained, an amount of the test compound was administered intravenously. The percentage reduction in the hypertension induced by the test compound compared with the reference hypertension previously obtained (approximately 100 mm Hg) was recorded. In both cases, the results of the reduction in blood-pressure or in the heart rate have been expressed as follows: […]

isolated rat aorta = assay: Calcium inhibitory properties: contractile response to potassium-induced depolarization on isolated rat aorta; parameters: species or system isolated organ, male Wistar rats; details: for activity at 0.1 µM / activity at 0.01 µM / activity at 0.001 µM / activity at 1 µM / activity at 10 µM: Rattus norvegicus, 1 h, read-out: % of the maximum contractional effect; for activity at 0.1 µM: 10^-7 M; for activity at 0.01 µM: 10^-8 M; for activity at 0.001 µM: 10^-9 M; for activity at 1 µM: 10^-6 M; for activity at 10 µM: 10^-5 M
Procedure, shortened: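 Contraction is expressed as % of the pre-incubation maximum, measured after a 60 min compound exposure and a fresh K+ (100 mM KCl) depolarization. Tissue: aortic strips from male Wistar rats, 2 g tension, modified Krebs-bicarbonate, 37° C, CO2/O2 gassed.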

[2] = test system: isoprenaline-induced acceleration in heart rate (anti-β effect); assay: Antiadrenergic properties: anti-β effect (reduction of isoprenaline-induced tachycardia); format: in vivo; parameters: key to anti-β effect: +: for a reduction < 50%; ++: for a reduction ≥ 50%; +++: for a reduction sub-total (almost complete reduction); details: dog
Description: as §1, with “the acceleration of the heart rate” for “the hypertension”, “reference tachycardia measured” for “reference hypertension”, “previously” for “previously obtained”, “(approximately 70 beats)” for “(approximately 100 mm Hg)”

[3] = Canis lupus familiaris, iv, 1 mg/kg i.v.
[4] = Canis lupus familiaris, iv, 0.1 mg/kg i.v.
[5] = Canis lupus familiaris, iv, 0.3 mg/kg i.v.
[6] = Canis lupus familiaris, iv, 11.2 mg/kg i.v.
[7] = Canis lupus familiaris, iv, 4.9 mg/kg i.v.
[8] = Canis lupus familiaris, iv, 5.89 mg/kg i.v.

SMILES | activity at 0.1 µM (isolated rat aorta) [%] | activity at 0.01 µM (isolated rat aorta) [%] | activity at 0.001 µM (isolated rat aorta) [%] | activity at 1 µM (isolated rat aorta) [%] | further results
CCCCN(CCCC)CCCCOc1ccc(S(=O)(=O)c2c(CC)cn3ccccc23)cc1 [Ex. 23, 2-Ethyl-1-{4-[4-(di-n-butylamino)butyloxy]benzenesulphonyl}indolizine hemioxalate] | 24.1 | 77.8 | – | – | anti-α effect ([1]; 1 mg/kg i.v.): +++; anti-β effect ([2]; 1 mg/kg i.v.): +++
CCCCCN(CCCCC)CCCOc1ccc(S(=O)(=O)c2c(CC)cn3ccccc23)cc1.Cl [Ex. 26, 2-Ethyl-1-{4-[3-(di-n-pentylamino)propyloxy}benzenesulphonyl}indolizine hydrochloride] | 42.9 | 82.9 | – | – | anti-α effect ([1]; 0.5 mg/kg i.v.): +++; inhibition in vivo at 0.5 mg/kg ([2]; Canis lupus familiaris, iv, 0.5 mg/kg i.v.): ≥ 50%
CCc1cn2ccccc2c1S(=O)(=O)c1ccc(OCCCNCCc2ccc(OC)c(OC)c2)cc1 [Ex. 27, 2-Ethyl-1-{4-}3-(3,4-dimethoxy-β-phenethylamino)propyloxy]benzenesulphonyl}indolizine oxalate] | 7.7 | 58.9 | 81.6 | – | anti-α effect ([1]; 1 mg/kg i.v.): +++; inhibition in vivo at 1 mg/kg [2, 3]: ≥ 50%
CCCCc1cn2ccccc2c1S(=O)(=O)c1ccc(OCCCNC(C)(C)C)cc1.O=C(O)C(=O)O [Ex. 29, 2-n-Butyl-1-{4-[3-(tert-butylamino)propyloxy]benzenesulphonyl}indolizine oxalate] | – | – | – | 30.7 | anti-α effect ([1]; 5 mg/kg i.v.): +++; inhibition in vivo at 5 mg/kg ([2]; Canis lupus familiaris, iv, 5 mg/kg i.v.): ≥ 50%
COc1ccc(CCN(C)CCCCOc2ccc(S(=O)(=O)c3c(C(C)C)cn4ccccc34)cc2)cc1OC [Ex. 42, 2-Isopropyl-1-[4-{4-[N-methyl-N-(3,4-dimethoxy-β-phenethyl)amino]butyloxy]benzenesulphonyl]indolizine] | 21.1 | 53.9 | 78.8 | – | anti-α effect ([1]; 0.1 mg/kg i.v.): +++; anti-β effect ([2]; 0.1 mg/kg i.v.): +++
COc1ccc(CNCCCOc2ccc(S(=O)(=O)c3c(C(C)C)cn4ccccc34)cc2)cc1OC [Ex. 43, 2-Isopropyl-1-{4-[3-(3,4-dimethoxybenzylamino)propyloxy]benzenesulphonyl}indolizine] | 9.7 | 58.4 | 88.7 | – | anti-α effect ([1]; 0.2 mg/kg i.v.): +++; anti-β effect ([2]; 0.2 mg/kg i.v.): +++
CCCCN(CCCOc1ccc(S(=O)(=O)c2c(C(C)C)cn3ccccc23)cc1)CCc1ccc(OC)c(OC)c1 [Ex. 45, 2-Isopropyl-1-[4-{3-[N-n-butyl-N-(3,4-dimethoxy-β-phenethyl)amino]propyloxy}benzenesulphonyl]indolizine acid oxalate] | 18.7 | 62.3 | 80.7 | – | inhibition in vivo at 0.1 mg/kg [1, 4]: ≥ 50%; inhibition in vivo at 0.1 mg/kg [2, 4]: ≥ 50%
COc1cccc(CCN(C)CCCOc2ccc(S(=O)(=O)c3c(C(C)C)cn4ccccc34)cc2)c1 [Ex. 46, 2-Isopropyl-1-[4-{3-[N-methyl-N-(3-methoxy-β-phenethyl)amino]propyloxy}benzenesulphonyl]indolizine acid oxalate] | 4.3 | 49.5 | 78.1 | – | anti-α effect ([1]; 0.1 mg/kg i.v.): +++; anti-β effect ([2]; 0.1 mg/kg i.v.): +++
COc1ccc(CCN(C)CCCOc2ccc(S(=O)(=O)c3c(C(C)C)cn4ccccc34)cc2)cc1 [Ex. 47, 2-Isopropyl-1-[4-{3-[N-methyl-N-(4-methoxy-β-phenethyl)amino]propyloxy}benzenesulphonyl]indolizine acid oxalate] | 17.9 | 69.6 | 86.5 | – | inhibition in vivo at 0.3 mg/kg [1, 5]: ≥ 50%; inhibition in vivo at 0.3 mg/kg [2, 5]: < 50%
CCCCN(CCCC)CC(O)COc1ccc(S(=O)(=O)c2c(C(C)C)cn3ccccc23)cc1.Cl (stereo not drawn) [Ex. 49, 2-isopropyl-1-{4-[3-(di-n-butylamino)-2-hydroxypropyloxy]-benzenesulphonyl}indolizine hydrochloride] | 12.8 | 67.6 | 80.2 | 5.4 | anti-α effect ([1]; 1 mg/kg i.v.): +++; inhibition in vivo at 1 mg/kg [2, 3]: ≥ 50%
CCCCN(CCCC)CCCOc1ccc(S(=O)(=O)c2c(C3CCCCC3)cn3ccccc23)cc1 [Ex. 51, 2-Cyclohexyl-1-{4-[3-(di-n-butylamino)propyloxy]-benzenesulphonyl}indolizin] | 80.4 | – | – | 58.9 | anti-α effect ([1]; 5.2 mg/kg i.v.): +++; inhibition in vivo at 5.2 mg/kg ([2]; Canis lupus familiaris, iv, 5.2 mg/kg i.v.): ≥ 50%
CCCCN(CCCC)CCCOc1ccc(Sc2c(C(C)C)cn3ccccc23)cc1.O=C(O)C(=O)O [Ex. 52, 1-{4-[3-(di-n-butylamino)propyloxy]phenylthio}-2-isopropylindolizine oxalate] | – | – | – | 81.2 | anti-α effect ([1]; 5.4 mg/kg i.v.): +++; activity at 10 µM (isolated rat aorta): 69.2%; inhibition in vivo at 5.4 mg/kg ([2]; Canis lupus familiaris, iv, 5.4 mg/kg i.v.): ≥ 50%
COc1ccc(CCN(C)CCCOc2ccc(Sc3c(C(C)C)cn4ccccc34)cc2)cc1OC [Ex. 53, 1-[4-{3-[N-methyl-N-(3,4-dimethoxy-β-phenethyl)amino]propyloxy}phenylthio]-2-isopropylindolizine oxalate] | – | – | – | 75.4 | anti-α effect ([1]; 6.1 mg/kg i.v.): +++; activity at 10 µM (isolated rat aorta): 59.8%; inhibition in vivo at 6.1 mg/kg ([2]; Canis lupus familiaris, iv, 6.1 mg/kg i.v.): < 50%
COc1ccc(CCN(C)CCCOc2ccc(S(=O)(=O)c3c(C(C)C)cc4ccccn34)cc2)cc1OC [Ex. 55, 2-isopropyl-3-[4-{3-[N-methyl-N-(3,4-dimethoxy-β-phenethyl)amino]propyloxy}benzenesulphonyl]indolizine oxalate] | 9.5 | 34.1 | 68.7 | – | anti-α effect ([1]; 0.13 mg/kg i.v.): +++; inhibition in vivo at 0.13 mg/kg ([2]; Canis lupus familiaris, iv, 0.13 mg/kg i.v.): ≥ 50%
COc1ccc(CCN(C)CCCOc2ccc(S(=O)(=O)c3ccccn3)cc2)cc1OC [Ex. 59, 2-[4-{3-[N-methyl-N-(3,4-dimethoxy-β-phenethyl)amino]propyloxy}benzenesulphonyl]pyridine oxalate] | 87.5 | – | – | 81.7 | inhibition in vivo at 11.2 mg/kg [1, 6]: ≥ 50%; % of the maximum contractional effect (isolated rat aorta; head printed "10^-" (exponent missing; first of three columns before 10^-6 M), 60 min): 33.3%; inhibition in vivo at 11.2 mg/kg [2, 6]: ≥ 50%
COc1ccc(CCN(C)CCCOc2ccc(S(=O)(=O)c3ccccc3)cc2)cc1OC [Ex. 63, 4-{3-[N-methyl-N-(3,4-dimethoxy-β-phenethyl)amino]propyloxy}benzenesulphonylbenzene hydrochloride] | 73.7 | – | – | 21.4 | anti-α effect ([1]; 10.1 mg/kg i.v.): +++; inhibition in vivo at 10.1 mg/kg ([2]; Canis lupus familiaris, iv, 10.1 mg/kg i.v.): ≥ 50%
CCCCN(CCCC)CCCOc1ccc(S(=O)(=O)c2ccccc2)cc1 [Ex. 64, 4-[3-(di-n-butylamino)propyloxy]benzenesulphonylbenzene oxalate] | 85.3 | – | – | 32.4 | inhibition in vivo at 4.9 mg/kg [1, 7]: < 50%; inhibition in vivo at 4.9 mg/kg [2, 7]: ≥ 50%
CCCCc1nc2ccccc2n1S(=O)(=O)c1ccc(OCCCN(CCCC)CCCC)cc1 [Ex. 65, 2-n-butyl-1-{4-[3-(di-n-butylamino)propyloxy]benzenesulphonyl}benzimidazolacid oxalate] | 64.8 | – | – | 47.5 | inhibition in vivo at 5.89 mg/kg [1, 8]: ≥ 50%; inhibition in vivo at 5.89 mg/kg [2, 8]: ≥ 50%
